In patent publication US20050209278A1, “Piperidinyl- and piperazinyl-sulfonylmethyl hydroxamic acids and their use as protease inhibitors” (priority 2002, published 2005) one finds Ki data, which are given here for 15 molecules.

Where a name gives a salt, the structure may show the parent alone.

Assay [1] has as its target T1, MMP-2 (Homo sapiens, UniProt P08253).
T1 construct: made in house; host or cells: MMP-2-transfected p2AHT2 cells
T1 sequence (P08253 110-660): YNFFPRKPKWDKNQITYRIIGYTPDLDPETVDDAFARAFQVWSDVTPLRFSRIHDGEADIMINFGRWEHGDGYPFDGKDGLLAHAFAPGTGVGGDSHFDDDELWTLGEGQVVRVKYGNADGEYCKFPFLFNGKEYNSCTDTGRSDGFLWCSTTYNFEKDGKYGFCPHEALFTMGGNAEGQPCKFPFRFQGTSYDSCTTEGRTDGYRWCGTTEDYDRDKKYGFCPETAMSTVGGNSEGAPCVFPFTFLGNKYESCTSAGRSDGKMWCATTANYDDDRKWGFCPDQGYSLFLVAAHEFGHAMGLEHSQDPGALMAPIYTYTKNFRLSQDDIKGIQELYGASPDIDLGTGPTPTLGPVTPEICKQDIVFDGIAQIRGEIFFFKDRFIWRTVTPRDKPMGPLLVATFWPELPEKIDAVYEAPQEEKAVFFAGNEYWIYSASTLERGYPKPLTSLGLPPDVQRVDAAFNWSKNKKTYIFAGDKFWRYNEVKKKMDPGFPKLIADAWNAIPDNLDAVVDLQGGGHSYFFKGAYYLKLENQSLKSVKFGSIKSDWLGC
As to the kind of experiment: In vitro MMP inhibition, Ki determination (fluorogenic substrate II). To be noted: human recombinant enzyme; 4 μM substrate II; room temperature, 1 hr; read-out: MMP-2 Ki. It counts as biochemical. Here is the method: (§1) Several hydroxamic acids and salts thereof were analyzed in in vitro assays to determine their ability to inhibit the MMP cleavage of peptide substrates. […] and IC50 constants were calculated from the assayed hydroxamic acid-MMP interactions.
(§2) Human recombinant MMP-1, MMP-2, MMP-9, MMP-13, and MMP-14 were used in this assay. All enzymes were prepared in Assignee's laboratories following usual laboratory procedures. Protocols for the preparation and use of these enzymes are available in the scientific literature. See, e.g., Enzyme Nomenclature (Academic Press, San Diego, Calif., 1992) (and the citations therein). See also, Freije et al., “Molecular cloning and expression of collagenase-3, a novel human matrix metalloproteinase produced by breast carcinomas,” J Biol. Chem., 269(24), 16766-16773 (1994).
The MMP-2 proenzyme was purified by gelatin Sepharose chromatography from MMP-2-transfected p2AHT2 cells provided by Dr. Gregory Goldberg of Washington University (St. Louis, Mo.).
(§3) All MMPs were activated using 4-aminophenylmercuric acetate (“APMA”, Sigma Chemical, St. Louis, Mo.) or trypsin. MMP-9 also was activated using human recombinant MMP-3 (purified in Assignee's laboratory following standard cloning and purification techniques).
(§4) Two fluorogenic, methoxycoumarin-containing polypeptide substrates were used in the MMP inhibition assays: [drawing 427] Here, “Dpa” is 3-(2,4-dinitrophenyl)-L-2,3-diaminopropionyl group, and “MCA” is 7-methoxycoumarin-4-yl acetyl. Substrate (I) was purchased from Baychem (Redwood City, Calif.), and substrate II was prepared Assignee's laboratory. Substrate I was used in the IC50 determination assays, while substrate II was used in the Ki determination assays. In the absence of MMP inhibitory activity, either substrate is cleaved at the Gly-Leu peptide bond. This cleavage separates the highly fluorogenic peptide from the 2,4-dinitrophenyl quencher, thus resulting in increase of fluorescent intensity.
(§5) The stock solutions of the assayed hydroxamic acids (or salts thereof) were prepared in 1% dimethyl sulfoxide (DMSO). These stock solutions were diluted in Buffer A (100 mM Tris-HCl, 100 mM NaCl, 10 mM CaCl2, 0.05% polyoxyethylene 23 lauryl ether, pH 7.5) to obtain solutions with different hydroxamic acid concentrations, i.e., assay solutions with different concentrations of the assayed MMP inhibitory compound. The experiment controls contained the same amount of Buffer A/DMSO as the assayed sample, but contained no hydroxamic acid (or salt thereof).
The assays from which the Ki determinations were made were performed as follows. The assayed hydroxamic acid samples were incubated in separate wells of untreated white polystyrene plates (Nunc Nalgene International, Rochester, N.Y.), and analyzed on a Tecan SpectraFlour Plus plate reader. The excitation wavelength was 330 nm, and the emission wavelength—420 nm. All samples (assayed hydroxamic acids and controls) were incubated in separate plate wells at room temperature for 1 hr in the presence of 4 μM of MMP substrate (II). In the absence of MMP inhibitory activity, substrate II was cleaved at the Gly-Leu bond resulting in an increase of relative fluorescence. Inhibition was observed as a reduced rate of this increase in relative fluorescence. The various hydroxamic acids were analyzed using a single low enzyme concentration with a single substrate concentration fixed at or below the Km. This protocol is a modification of method by Knight et al., FEBS Lett., 296(3), 263-266 (1992). Apparent inhibitory constants were determined by non-linear regression of reaction velocity as a function of inhibitor and enzyme concentration using Morrison's equation, as described by Kuzmic, Anal. Biochem. 286, 45-50 (2000). […] Since the substrate concentration was chosen to be at or below the Km, the apparent Ki's from this analysis were reported as Ki's without correction for the influence of substrate.

The target in assay [2] is T2, MMP-9 (Homo sapiens, UniProt P14780).
T2 construct: made in house; host or cells: MMP-9-transfected HT1080 cells (spent media)
Described as above. To be noted: human recombinant enzyme; 4 μM substrate II; room temperature, 1 hr. It counts as biochemical. Here is the method: as §1, §2
The MMP-9 proenzyme was purified by gelatin Sepharose chromatography from spent media of MMP-9-transfected HT1080 cells provided by Dr. Howard Welgus of Washington University (St. Louis, Mo.).
as §3, §4, §5
The assays from which the Ki determinations were made were performed as follows. The assayed hydroxamic acid samples were incubated in separate wells of untreated white polystyrene plates (Nunc Nalgene International, Rochester, N.Y.), and analyzed on a Tecan SpectraFlour Plus plate reader. The excitation wavelength was 330 nm, and the emission wavelength—420 nm. All samples (assayed hydroxamic acids and controls) were incubated in separate plate wells at room temperature for 1 hr in the presence of 4 μM of MMP substrate (II). In the absence of MMP inhibitory activity, substrate II was cleaved at the Gly-Leu bond resulting in an increase of relative fluorescence. Inhibition was observed as a reduced rate of this increase in relative fluorescence. The various hydroxamic acids were analyzed using a single low enzyme concentration with a single substrate concentration fixed at or below the Km. This protocol is a modification of method by Knight et al., FEBS Lett., 296(3), 263-266 (1992). Apparent inhibitory constants were determined by non-linear regression of reaction velocity as a function of inhibitor and enzyme concentration using Morrison's equation, as described by Kuzmic, Anal. Biochem. 286, 45-50 (2000). Modifications were made in the non-linear regression method to allow a common control reaction rate and effective enzyme concentration to be shared between all dose-response relationships on a given assay plate. […]

T2 sequence (P14780 107-707 limits assumed): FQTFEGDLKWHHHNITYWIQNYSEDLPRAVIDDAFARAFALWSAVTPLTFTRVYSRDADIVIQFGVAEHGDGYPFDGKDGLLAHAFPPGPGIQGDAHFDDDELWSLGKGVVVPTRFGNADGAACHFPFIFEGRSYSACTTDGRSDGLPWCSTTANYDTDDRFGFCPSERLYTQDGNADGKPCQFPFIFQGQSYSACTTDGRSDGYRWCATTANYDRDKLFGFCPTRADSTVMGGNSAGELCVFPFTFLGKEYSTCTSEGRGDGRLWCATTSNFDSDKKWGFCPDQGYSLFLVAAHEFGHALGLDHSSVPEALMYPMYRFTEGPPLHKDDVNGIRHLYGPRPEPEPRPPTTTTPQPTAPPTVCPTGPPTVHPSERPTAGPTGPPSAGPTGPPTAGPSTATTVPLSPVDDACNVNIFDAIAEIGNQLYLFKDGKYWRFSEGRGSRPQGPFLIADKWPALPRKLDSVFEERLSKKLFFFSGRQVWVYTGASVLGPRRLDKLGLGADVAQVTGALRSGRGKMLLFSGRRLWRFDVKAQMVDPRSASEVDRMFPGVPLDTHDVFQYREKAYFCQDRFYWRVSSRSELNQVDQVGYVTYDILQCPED

Take `CCCCc1cnc(N2CCN(S(=O)(=O)C3(C(=O)NO)CCOCC3)CC2)cn1` [Example 1, 4-{[4-(5-butylpyrazin-2-yl)piperazin-1-yl]sulfonyl}-N-hydroxytetrahydro-2H-pyran-4-carboxamide Dihydrochloride]: the Ki was found to be 1.52 nM in assay [1] and 0.696 nM in assay [2].
For `O=C(NO)C1(S(=O)(=O)N2CCN(c3ccc(OCC(F)(F)F)cc3)CC2)CCOCC1` [Example 2, N-hydroxy-4-({4-[4-(2,2,2-trifluoroethoxy)phenyl]piperazin-1-yl}sulfonyl)tetrahydro-2H-pyran-4-carboxamide Hydrochloride], in that order: 0.74 nM and 1.28 nM.
For `CCOc1ccc(N2CCN(S(=O)(=O)C3(C(=O)NO)CCOCC3)CC2)cc1` [Example 3, 4-{[4-(4-ethoxyphenyl)piperazinyl]sulfonyl}perhydro-2H-pyran-4-carbohydroxamic Acid], in that order: 0.59 nM and 0.93 nM.
For `O=C(NO)C1(S(=O)(=O)N2CCN(c3ccc(OC(F)(F)C(F)F)cc3)CC2)CCOCC1` [Example 4, 4-({4-[4-(1,1,2,2-tetrafluoroethoxy)phenyl]piperazinyl}sulfonyl)perhydro-2H-pyran-4-carbohydroxamic Acid], the inhibition constant Ki in assay [1] was 0.104 nM; in assay [2] it was 0.739 nM.
On the same counts, the results for `CCCCc1ccc(N2CCN(S(=O)(=O)C3(C(=O)NO)CCN(CCOC)CC3)CC2)cc1` [Example 5, 4-{[4-(4-butylphenyl)piperazin-1-yl]sulfonyl}-N-hydroxy-1-(2-methoxyethyl)piperidine-4-carboxamide Dihydrochloride] are 0.62 nM and 0.108 nM.
As to `CCCCCc1ccc(N2CCN(S(=O)(=O)C3(C(=O)NO)CCN(CCOC)CC3)CC2)cc1` [Example 6, N-Hydroxy-1-(2-methoxyethyl)-4-{[4-(4-pentylphenyl)piperazin-1-yl]sulfonyl}piperidine-4-carboxamide Dihydrochloride], the Ki in assay [1] is 0.501 nM; in assay [2], 0.287 nM.
`O=C(NO)C1(S(=O)(=O)N2CCN(c3ccc(OCCCC(F)(F)F)cc3)CC2)CCOCC1` [Example 7, N-hydroxy-4-({4-[4-(4,4,4-trifluorobutoxy)phenyl]piperazin-1-yl}sulfonyl)tetrahydro-2H-pyran-4-carboxamide Hydrochloride]: the Ki turned out to be 0.497 nM in assay [1] and 7.35 nM in assay [2].
For `COc1ccc(-c2cnc(N3CCN(S(=O)(=O)C4(C(=O)NO)CCOCC4)CC3)nc2)cc1` [Example 8, N-hydroxy-4-({4-[5-(4-methoxyphenyl)pyrimidin-2-yl]piperazin-1-yl}sulfonyl)tetrahydro-2H-pyran-4-carboxamide Hydrochloride], the Ki is 1.98 nM in assay [1] and 1.65 nM in assay [2].
For `COCCN1CCC(C(=O)NO)(S(=O)(=O)N2CCN(c3ccc(OCCCC(F)(F)F)cc3)CC2)CC1` [Example 9, N-hydroxy-1-(2-methoxyethyl)-4-({4-[4-(4,4,4-trifluorobutoxy)phenyl]piperazin-1-yl}sulfonyl)piperidine-4-carboxamide Dihydrochloride], in that order: 0.223 nM and 2.76 nM.
For `O=C(NO)C1(S(=O)(=O)N2CCN(c3ccc(OCC4CC4)c(F)c3)CC2)CCN(C2CC2)CC1` [Example 10, 1-cyclopropyl-4-[[4-[4-(cyclopropylmethoxy)-3-fluorophenyl]-1-piperazinyl]sulfonyl]-N-hydroxy-4-piperidinecarboxamide, dihydrochloride], in that order: 0.52 nM and 0.97 nM.
As to `CCCCOc1ccc(N2CCN(S(=O)(=O)C3(C(=O)NO)CCN(CCOC)CC3)CC2)cc1F` [Example 11, 4-[[4-(4-butoxy-3-fluorophenyl)-1-piperazinyl]sulfonyl]-N-hydroxy-1-(2-methoxyethyl)-4-piperidinecarboxamide, Dihydrochloride], the Ki in assay [1] was found to be 0.71 nM; in assay [2], 2.67 nM.
For `O=C(NO)C1(S(=O)(=O)N2CCN(c3ccc(-c4ccccc4)c(F)c3)CC2)CCOCC1` [Example 12, 4-{[4-(2-fluoro-1,1′-biphenyl-4-yl)piperazin-1-yl]sulfonyl}-N-hydroxytetrahydro-2H-pyran-4-carboxamide Hydrochloride], in that order: 0.18 nM and 1 nM.
Regarding `CCCCCc1ccc(N2CCN(S(=O)(=O)C3(C(=O)NO)CCN(CCOC)CC3)CC2)cc1F` [Example 13, 4-{[4-(3-fluoro-4-pentylphenyl)piperazin-1-yl]sulfonyl}-N-hydroxy-1-(2-methoxyethyl)piperidine-4-carboxamide Dihydrochloride], the results for the Ki in assay [1] and in assay [2] were 0.549 nM and 0.712 nM, respectively.
On to `COCCOc1ccc(N2CCN(S(=O)(=O)C3(C(=O)NO)CCOCC3)CC2)cc1` [Example 14, N-hydroxy-4-({4-[4-(2-methoxyethoxy)phenyl]piperazin-1-yl}sulfonyl)tetrahydro-2H-pyran-4-carboxamide Hydrochloride], for which the Ki in assay [1] was determined as 3.84 nM; in assay [2], 20 nM.
On the same counts, the results for `CCCCCc1ccc(C2CCN(S(=O)(=O)C3(C(=O)NO)CCN(CCOC)CC3)CC2)cc1` [Example 15, N-hydroxy-1-(2-methoxyethyl)-4-{[4-(4-pentylpheyl)piperidin-1-yl]sulfonyl}piperidine-4-carboxamide Hydrochloride] are 0.89 nM and 0.13 nM.

By Ki is commonly meant the equilibrium dissociation constant of an inhibitor or competing ligand from its target.
